Results reported in patent US12246010B2, “Formulations of tegavivint and related compounds” (Iterion Therapeutics, Inc., priority 2018, dated 2025).
Like-named read-outs stand apart in the source and are kept apart here.

Assays:
[1] = Aerosol concentration of nebulized formulations in rodent nose-only exposure chamber; type: physicochemical
Excerpt: A series of BC-2059 (tegavivint) formulations were aerosolized using vibrating mesh and compressed air nebulizers to determine the most efficient method of aerosol generation. The aerosols were characterized for aerosol concentration and particle size distribution in a rodent nose-only exposure chamber. Each formulation had different variables adjusted to assess impact on aerosol performance. These included particle size reduction of the API, excipient profile and nebulizer utilized.
Test article BC-2059 was suspended in 0.1% Tween 80 in purified water at a concentration of 15 mg/mL. The suspension was sonicated using a Covaris S220x Ultrasonicator (Covaris, Boston MA) and then mixed on a vortex for one minute. Sonication and mixing by vortex was repeated a total of 15 times.
The remaining bulk BC-2059 powder was ground in a Planetary Ball Mill (Retsch, Germany) for 10 minutes at 150 RPMs utilizing a 12 mL ball mill jar and three metal balls. The milled BC-2059 powder was suspended in 0.1% Tween 80 in purified water at a concentration of 15 mg/mL. The suspension was sonicated using the procedure outlined above.
The remaining bulk BC-2059 powder was ground in a Planetary Ball Mill (Retsch, Germany) for 60 minutes at 300 RPMs utilizing a 12 mL ball mill jar and three metal balls. The milled BC-2059 powder was suspended in 0.1% Tween 80 in purified water and 10% PEG 400 in purified water at a concentration of 15 mg/mL. The suspensions were sonicated using the procedure outlined above. An additional 15 mg/mL BC-2059 suspension using 10% ethanol in purified water was prepared. The suspension was sonicated for 10 minutes using a VWR sonicator (VWR, Radnor PA) and mixed for 4 minutes using a vortex mixer. […]
The aerosols were generated from formulations prepared with a series of surfactants with 4 separate nebulizers (Aeroneb Solo (Aerogen, Ireland), Pari LC Plus (Pari Respiratory Equipment Inc. Midlothian VA), Hospitak Up Mist, Hospitak Inc. Farmdale, NY), and Hudson Micro-Mist (Teleflex Inc. Research Triangle Park, NC) and transitioned into a 2 tier flow-past rodent exposure system.
The total concentration of aerosol in the exposure atmosphere was determined by the analysis of filter samples (GF/A 47-mm filters). Filter samples were collected at a nominal flow rate of 0.3 L/min. Filter samples collected throughout the study were analyzed gravimetrically to determine the total aerosol concentration, and submitted for HPLC analysis.
Filters with test article were extracted in 1:1 acetonitrile: methanol and analyzed by the HPLC-UV assay.

[2] = Pharmacokinetics after slow intravenous bolus in female Sprague-Dawley rats; type: in vivo; conditions: 10 mg/kg slow intravenous bolus; for half-life: iv, 10 mg/kg
Procedure: The objective of this study was to investigate the pharmacokinetics of tegavivint following a single intravenous slow bolus administration of tegavivint to female Sprague-Dawley rats.
Dose Preparation and Administration The stock formulation (25 mg/mL) was provided. Accurately, 600 μL of dose formulation (Stock, 25 mg/mL) was transferred to labeled glass container. To this, 2.4 mL of 5% dextrose solution was added, vortex mixed and sonicated to obtain homogeneous suspension of 5 mg/mL strength. Animals were dosed underfed condition. Rats were administered a single dose of 10 mg/kg of tegavivint by slow intravenous bolus (over 1.5 min) jugular vein catheter using 1 mL BD syringe guided with 23 G blunt needle at a dose volume of 2 mL/kg. Syringes used for dosing were weighed before and after dose administration in order to calculate the actual dose administered.
Sample Collection and Processing Blood samples were collected at 0.083, 0.25, 0.5, 1, 2, 4, 6, 8, 12 and 24 h post dose. At each time point, approximately, 0.25 mL of blood was withdrawn from jugular vein of the cannulated rat and transferred to a labeled microfuge tube containing 200 mM K2EDTA (20 μL per mL of blood). Following sampling, equal volume of heparinized saline was replaced into the catheter. The blood samples were kept on wet ice at all times immediately after collection and the plasma was separated by centrifugation at 5000 g for 5 minutes at 4±2° C. The plasma samples were separated within 1 h of scheduled time and stored below −60° C. until bioanalysis.
Bioanalysis Bioanalysis was performed using fit-for-purpose LC-MS/MS method for the quantification of BC2059 in rat plasma samples. The calibration curve (CC) for the method consisted of at least 6 non-zero calibration standards along with a blank and blank with internal standard samples with a lower limit of quantification (LLOQ) of 0.050 μg/mL. Study samples were analyzed along with three sets of quality control samples (9 QC samples; low, medium and high QC samples in triplicate).
Pharmacokinetic Data Analysis The pharmacokinetic parameters for tegavivint were calculated using the non-compartmental analysis tool ([…]) of the validated Phoenix® WinNonlin® software (version 6.3). The area under the concentration time curve (AUClast and AUCinf) was calculated by linear trapezoidal rule. The CO (back extrapolated concentration at time zero) was estimated following intravenous bolus dose administration by back-extrapolating the first two concentration values. The total plasma clearance (CL) and volume of distribution at steady-state (Vss) were estimated values. The elimination rate constant value (k) was calculated by linear regression of the log-linear terminal phase of the concentration-time profile using at least 3 declining concentrations in terminal phase with a correlation coefficient of >0.8. The terminal half-life value (T½) was calculated using the equation 0.693/k. The alpha and beta half-lifes were calculated and reported.

[3] = Covaris and Ball Mill (60 min), 0.1% Tween 80, 15.06 mg/mL, Hospitak
[4] = Covaris and Ball Mill (60 min), 0.1% Tween 80, 15.08 mg/mL, Hudson MicroMist
[5] = Covaris and Ball Mill (60 min), 10% PEG-400, 15.08 mg/mL, Hudson MicroMist
[6] = Covaris, 0.1% Tween 80, 15.04 mg/mL, Aeroneb Solo
[7] = Sonicator and Ball Mill (60 min), 10% Ethanol, 15.00 mg/mL, Hudson MicroMist
[8] = female, Sprague-Dawley, plasma, rat

## C[C@@H]1C[C@H](C)CN(S(=O)(=O)c2ccc3c(c2)C(=NO)c2cc(S(=O)(=O)N4C[C@H](C)C[C@H](C)C4)ccc2C3=NO)C1 [BC2059, tegavivint]
[1]; Covaris and Ball Mill (10 min), 0.1% Tween 80, 15.58 mg/mL, Pari LC Plus
  Total Aerosol Conc.: 0.123 mg/L
[1]; [3]
  BC-2059 Aerosol Conc.: 66 µg/L
  Total Aerosol Conc.: 0.229 mg/L
[1]; [4]
  BC-2059 Aerosol Conc.: 86 µg/L
  Total Aerosol Conc.: 0.093 mg/L
[1]; [5]
  BC-2059 Aerosol Conc.: 7.2 µg/L
  Total Aerosol Conc.: 2.58 mg/L
[1]; [6]
  BC-2059 Aerosol Conc.: 1.3 µg/L
  Total Aerosol Conc.: 0.247 mg/L
[1]; [7]
  BC-2059 Aerosol Conc.: 20.2 µg/L
  Total Aerosol Conc.: 0.027 mg/L
[2]
  CL lower than normal rat liver blood flow of 55 mL/min/kg: about 5.5 fold
[2]; [8]
  AUC(0-inf): 17200 ng·h/mL
  AUC(0-t): 14600 ng·h/mL
  MRT last: 4.07 h
[2]; female, Sprague-Dawley, plasma, rat, back extrapolated
  C0: 62.2 µg/mL
[2]; female, Sprague-Dawley, plasma, rat, mean, n=4
  clearance: 9.92 mL/min/kg
[2]; female, Sprague-Dawley, plasma, rat, mean, n=4, read-out: Vss
  Vd: 6.54 L/kg
[2]; female, Sprague-Dawley, rat, plasma, regression points 0.5, 1 and 2 h, read-out: T1/2 Alpha (converted)
  half-life: 0.546 h
[2]; female, Sprague-Dawley, rat, plasma, regression points 6, 8, 12 and 24 h, read-out: T1/2 Beta (converted)
  half-life: 13.8 h
[2]; rat
  Vss greater than normal body water of 0.7 L/kg: ~9.34 fold
